Oligonucleotides are written 5' to 3', each unit as a sugar letter and its base; * is a phosphorothioate linkage, no mark a phosphodiester; rarer units and linkages stand in square brackets, end groups in braces. Plain capitals give the bases only. Oligonucleotides are given in HELM: sugar(base)linkage, 5' to 3'; d 2'-deoxyribose, r ribose, m 2'-O-methylribose, p phosphate. ss, as = sense and antisense strand; d = 2'-deoxy (DNA); r = 2'-OH (RNA)
These substances were tested against UBE2D3 (assay: reporter assay of Huesken 2005). Conditions: siRNA.
Note: test concentration or dose not given here.

Substance	normalised inhibition (eCFP-eYFP dual reporter) [%]
RNA1{r(A)p.r(A)p.r(G)p.r(C)p.r(C)p.r(A)p.r(C)p.r(A)p.r(A)p.r(U)p.r(U)p.r(A)p.r(U)p.r(G)p.r(G)p.r(G)p.r(A)p.r(C)p.r(C)p.d(T)p.d(T)}|RNA2{r(G)p.r(G)p.r(U)p.r(C)p.r(C)p.r(C)p.r(A)p.r(U)p.r(A)p.r(A)p.r(U)p.r(U)p.r(G)p.r(U)p.r(G)p.r(G)p.r(C)p.r(U)p.r(U)p.d(G)p.d(C)}$$$RNA1{StrandType:ss}|RNA2{StrandType:as}$	52
RNA1{r(A)p.r(A)p.r(G)p.r(G)p.r(U)p.r(U)p.r(G)p.r(C)p.r(A)p.r(U)p.r(U)p.r(U)p.r(A)p.r(C)p.r(A)p.r(A)p.r(C)p.r(A)p.r(A)p.d(T)p.d(T)}|RNA2{r(U)p.r(U)p.r(G)p.r(U)p.r(U)p.r(G)p.r(U)p.r(A)p.r(A)p.r(A)p.r(U)p.r(G)p.r(C)p.r(A)p.r(A)p.r(C)p.r(C)p.r(U)p.r(U)p.d(A)p.d(G)}$$$RNA1{StrandType:ss}|RNA2{StrandType:as}$	83
RNA1{r(A)p.r(A)p.r(U)p.r(G)p.r(A)p.r(C)p.r(A)p.r(G)p.r(C)p.r(C)p.r(C)p.r(A)p.r(U)p.r(A)p.r(U)p.r(C)p.r(A)p.r(A)p.r(G)p.d(T)p.d(T)}|RNA2{r(C)p.r(U)p.r(U)p.r(G)p.r(A)p.r(U)p.r(A)p.r(U)p.r(G)p.r(G)p.r(G)p.r(C)p.r(U)p.r(G)p.r(U)p.r(C)p.r(A)p.r(U)p.r(U)p.d(A)p.d(G)}$$$RNA1{StrandType:ss}|RNA2{StrandType:as}$	80
RNA1{r(A)p.r(A)p.r(U)p.r(U)p.r(C)p.r(A)p.r(U)p.r(U)p.r(U)p.r(U)p.r(C)p.r(C)p.r(U)p.r(A)p.r(C)p.r(A)p.r(G)p.r(A)p.r(C)p.d(T)p.d(T)}|RNA2{r(G)p.r(U)p.r(C)p.r(U)p.r(G)p.r(U)p.r(A)p.r(G)p.r(G)p.r(A)p.r(A)p.r(A)p.r(A)p.r(U)p.r(G)p.r(A)p.r(A)p.r(U)p.r(U)p.d(G)p.d(T)}$$$RNA1{StrandType:ss}|RNA2{StrandType:as}$	62.3
RNA1{r(A)p.r(C)p.r(A)p.r(A)p.r(U)p.r(U)p.r(C)p.r(A)p.r(U)p.r(U)p.r(U)p.r(U)p.r(C)p.r(C)p.r(U)p.r(A)p.r(C)p.r(A)p.r(G)p.d(T)p.d(T)}|RNA2{r(C)p.r(U)p.r(G)p.r(U)p.r(A)p.r(G)p.r(G)p.r(A)p.r(A)p.r(A)p.r(A)p.r(U)p.r(G)p.r(A)p.r(A)p.r(U)p.r(U)p.r(G)p.r(U)p.d(C)p.d(A)}$$$RNA1{StrandType:ss}|RNA2{StrandType:as}$	76.2
RNA1{r(A)p.r(C)p.r(G)p.r(G)p.r(A)p.r(U)p.r(C)p.r(U)p.r(A)p.r(U)p.r(A)p.r(A)p.r(A)p.r(A)p.r(C)p.r(A)p.r(G)p.r(A)p.r(C)p.d(T)p.d(T)}|RNA2{r(G)p.r(U)p.r(C)p.r(U)p.r(G)p.r(U)p.r(U)p.r(U)p.r(U)p.r(A)p.r(U)p.r(A)p.r(G)p.r(A)p.r(U)p.r(C)p.r(C)p.r(G)p.r(U)p.d(G)p.d(C)}$$$RNA1{StrandType:ss}|RNA2{StrandType:as}$	68.3
RNA1{r(A)p.r(C)p.r(U)p.r(A)p.r(C)p.r(C)p.r(C)p.r(C)p.r(U)p.r(U)p.r(C)p.r(A)p.r(A)p.r(A)p.r(C)p.r(C)p.r(A)p.r(C)p.r(C)p.d(T)p.d(T)}|RNA2{r(G)p.r(G)p.r(U)p.r(G)p.r(G)p.r(U)p.r(U)p.r(U)p.r(G)p.r(A)p.r(A)p.r(G)p.r(G)p.r(G)p.r(G)p.r(U)p.r(A)p.r(G)p.r(U)p.d(C)p.d(T)}$$$RNA1{StrandType:ss}|RNA2{StrandType:as}$	63.1
RNA1{r(A)p.r(G)p.r(C)p.r(A)p.r(C)p.r(A)p.r(A)p.r(U)p.r(G)p.r(U)p.r(U)p.r(C)p.r(U)p.r(G)p.r(C)p.r(A)p.r(G)p.r(G)p.r(U)p.d(T)p.d(T)}|RNA2{r(A)p.r(C)p.r(C)p.r(U)p.r(G)p.r(C)p.r(A)p.r(G)p.r(A)p.r(A)p.r(C)p.r(A)p.r(U)p.r(U)p.r(G)p.r(U)p.r(G)p.r(C)p.r(U)p.d(G)p.d(G)}$$$RNA1{StrandType:ss}|RNA2{StrandType:as}$	102
RNA1{r(A)p.r(G)p.r(C)p.r(A)p.r(U)p.r(U)p.r(U)p.r(G)p.r(U)p.r(C)p.r(U)p.r(C)p.r(G)p.r(A)p.r(U)p.r(A)p.r(U)p.r(U)p.r(C)p.d(T)p.d(T)}|RNA2{r(G)p.r(A)p.r(A)p.r(U)p.r(A)p.r(U)p.r(C)p.r(G)p.r(A)p.r(G)p.r(A)p.r(C)p.r(A)p.r(A)p.r(A)p.r(U)p.r(G)p.r(C)p.r(U)p.d(G)p.d(C)}$$$RNA1{StrandType:ss}|RNA2{StrandType:as}$	79.2

Each substance was assayed against UBE2W (assay: reporter assay of Huesken 2005). Conditions: siRNA.

Substance	normalised inhibition (eCFP-eYFP dual reporter) [%]
sense rUrArArCrArArGrArArUrCrCrArArArGrArArAdTdT / antisense rUrUrUrCrUrUrUrGrGrArUrUrCrUrUrGrUrUrAdCdA	115
sense rUrArArCrArGrArArGrArCrUrGrGrUrCrCrCrCdTdT / antisense rGrGrGrGrArCrCrArGrUrCrUrUrCrUrGrUrUrAdGdA	64.7
sense rUrArCrCrUrUrArUrArUrGrArArGrGrGrGrArAdTdT / antisense rUrUrCrCrCrCrUrUrCrArUrArUrArArGrGrUrAdCdC	111
sense rUrArCrUrGrGrUrGrArArArArUrArUrUrCrCrUdTdT / antisense rArGrGrArArUrArUrUrUrUrCrArCrCrArGrUrAdAdA	94.4
sense rUrArGrArCrArUrGrGrArArGrGrUrGrCrArCrCdTdT / antisense rGrGrUrGrCrArCrCrUrUrCrCrArUrGrUrCrUrAdCdA	38.9
sense rUrArUrCrCrArUrUrCrUrArArCrArGrArArGrAdTdT / antisense rUrCrUrUrCrUrGrUrUrArGrArArUrGrGrArUrAdAdA	83.9
sense rUrArUrCrUrGrUrUrUrArUrCrCrArUrUrCrUrAdTdT / antisense rUrArGrArArUrGrGrArUrArArArCrArGrArUrAdTdG	85.9
sense rUrArUrUrCrCrUrGrUrUrCrArUrCrCrUrCrArUdTdT / antisense rArUrGrArGrGrArUrGrArArCrArGrGrArArUrAdTdT	104
sense rUrCrArUrCrCrUrCrArUrGrUrUrUrArUrArGrCdTdT / antisense rGrCrUrArUrArArArCrArUrGrArGrGrArUrGrAdAdC	78.8
sense rUrCrCrArArUrCrArGrUrUrUrGrUrCrUrUrArGdTdT / antisense rCrUrArArGrArCrArArArCrUrGrArUrUrGrGrAdCdT	85
sense rUrCrCrArUrUrCrUrArArCrArGrArArGrArCrUdTdT / antisense rArGrUrCrUrUrCrUrGrUrUrArGrArArUrGrGrAdTdA	64.1
sense rUrCrCrUrGrUrUrCrArUrCrCrUrCrArUrGrUrUdTdT / antisense rArArCrArUrGrArGrGrArUrGrArArCrArGrGrAdAdT	108
sense rUrCrCrUrUrUrUrGrArCrUrCrUrCrCrUrCrArGdTdT / antisense rCrUrGrArGrGrArGrArGrUrCrArArArArGrGrAdTdA	78.4
sense rUrCrGrArUrArUrCrCrUrUrUrUrGrArCrUrCrUdTdT / antisense rArGrArGrUrCrArArArArGrGrArUrArUrCrGrAdCdT	74.7
sense rUrCrUrArArCrArGrArArGrArCrUrGrGrUrCrCdTdT / antisense rGrGrArCrCrArGrUrCrUrUrCrUrGrUrUrArGrAdAdT	73.3
sense rUrGrArCrCrUrUrArArArUrGrArGrArArGrArGdTdT / antisense rCrUrCrUrUrCrUrCrArUrUrUrArArGrGrUrCrAdTdT	75
sense rUrGrCrArCrCrArGrGrUrArCrCrUrUrArUrArUdTdT / antisense rArUrArUrArArGrGrUrArCrCrUrGrGrUrGrCrAdCdC	78
sense rUrGrCrGrArArCrArUrGrUrArArCrArArGrArAdTdT / antisense rUrUrCrUrUrGrUrUrArCrArUrGrUrUrCrGrCrAdCdA	104
sense rUrGrCrUrUrUrCrCrArGrCrUrGrCrArArGrGrAdTdT / antisense rUrCrCrUrUrGrCrArGrCrUrGrGrArArArGrCrAdTdG	110
sense rUrGrGrArArUrGrArCrCrUrUrArArArUrGrArGdTdT / antisense rCrUrCrArUrUrUrArArGrGrUrCrArUrUrCrCrAdGdG	96.4
sense rUrGrGrUrGrArArArArUrArUrUrCrCrUrGrUrUdTdT / antisense rArArCrArGrGrArArUrArUrUrUrUrCrArCrCrAdGdT	115
sense rUrGrUrUrUrArUrCrCrArUrUrCrUrArArCrArGdTdT / antisense rCrUrGrUrUrArGrArArUrGrGrArUrArArArCrAdGdA	66.2
sense rUrUrArArArUrUrUrArGrUrArGrUrCrGrArUrAdTdT / antisense rUrArUrCrGrArCrUrArCrUrArArArUrUrUrArAdAdT	79.9
sense rUrUrArCrArCrArGrUrGrGrArUrUrGrUrArGrAdTdT / antisense rUrCrUrArCrArArUrCrCrArCrUrGrUrGrUrArAdTdT	92.6
sense rUrUrCrCrUrGrUrUrCrArUrCrCrUrCrArUrGrUdTdT / antisense rArCrArUrGrArGrGrArUrGrArArCrArGrGrArAdTdA	73
sense rUrUrUrArArArUrUrUrArGrUrArGrUrCrGrArUdTdT / antisense rArUrCrGrArCrUrArCrUrArArArUrUrUrArArAdTdA	88
sense rUrUrUrArCrUrGrGrUrGrArArArArUrArUrUrCdTdT / antisense rGrArArUrArUrUrUrUrCrArCrCrArGrUrArArAdCdA	91.2
sense rUrUrUrUrGrArCrUrCrUrCrCrUrCrArGrGrUrCdTdT / antisense rGrArCrCrUrGrArGrGrArGrArGrUrCrArArArAdGdG	95

Reference: the OligoGym collection
